Tests used:
[1] = system: human lung cancer cells (A549); test: Tumor cell proliferation inhibition (CCK-8), A549; format: cell-based; conditions: 48 h; for inhibition at 100 µM: read-out: Anti-proliferative activity at 100 μM by concentration (%) A549 (tumor cell inhibition rate)
Description: (§1) Human colon cancer cells (HCT116), human lung cancer cells (A549).
(§2) 1) The test cells in a logarithmic growth phase were trypsinized and counted, inoculated in a 96-well culture plate at a concentration of 5×10^4/mL, 100 μL per well (5×10^3 cells per well), and incubated at 37° C. in a 5% CO2 incubator for 24 h.
(§3) 2) A drug to be tested was diluted to different concentrations with McCoy'S 5A or RPMI 1640 complete medium. The experimental group was replaced with a culture solution containing different concentrations of the tested samples, and the control group was replaced with a culture solution containing the same volume of solvent (DMSO). Three parallel wells were set up in each group, and the culture was continued for 48 h in a 5% CO2 incubator at 37° C.
(§4) HCT116 cells used the McCoy'S 5A complete medium, and A549 cells used the RPMI 1640 complete medium.
(§5) 3) 10 μL of a CCK-8 solution was added to each well, incubated at 37° C. for 1 h to 4 h, and an absorbance (OD value) of each well at 490 nm was measured with a microplate reader.
(§6) 4) A survival rate and an inhibition rate were calculated with the following formulas:
(§7) Cell survival rate=[(As−Ab)/(Ac−Ab)]×100%
(§8) Inhibition rate=[(Ac−As)/(Ac−Ab)]×100%
(§9) An S-type dose-survival curve was plotted using GraphPad Prism 7.0 software and a nonlinear regression model, and IC50 values were calculated. • As: absorbance of the experimental well (medium containing cells, CCK-8, and the drug to be tested) • Ac: absorbance of control wells (medium containing cells, CCK-8, and solvent (DMSO)) • Ab: absorbance of blank wells (medium without cells and drug to be tested, CCK-8)

[2] = system: Human colon cancer cells (HCT116); test: Tumor cell proliferation inhibition (CCK-8), HCT116; format: cell-based; conditions: for inhibition at 100 µM: HCT-116, 100 μM of the compound, read-out: Anti-proliferative activity at 100 μM by concentration (%) HCT116 (tumor cell inhibition rate)
Description: as §1, §2, §3, §4, §5, §6, §7, §8, §9

[3] = Homo sapiens, 100 μM of the compound

C=C[C@]1(C)CC[C@@H](C(=C)C/C=C/c2ccc(-n3cncn3)cc2)C[C@H]1C(=C)C [Compound 4]
inhibition at 100 µM [1, 3]: 97.5 ± 0.4% | IC50 ([1]; Homo sapiens): 57.2 ± 2.95 µM | inhibition at 100 µM ([2]; Homo sapiens, 48 h): 99.8 ± 0.08% | IC50 ([2]; Homo sapiens, HCT-116, 48 h): 50.9 ± 0.8 µM

C=C[C@]1(C)CC[C@@H](C(=C)C/C=C/c2ccc(C(=O)OCCOc3ccc(/C(=C(/CCCl)c4ccccc4)c4ccccc4)cc3)cc2)C[C@H]1C(=C)C [Compound 10]
inhibition at 100 µM [1, 3]: 40.4 ± 0.6% | inhibition at 100 µM ([2]; Homo sapiens, 48 h): 13.5 ± 0.3%

C=C[C@]1(C)CC[C@@H](C(=C)C)C[C@H]1C(=C)C [β-elemene, reference compound]
Anti-proliferative activity at 100 μM by concentration (%) A549 (tumor cell inhibition rate) ([1]; 100 μM of the compound): 10.6 ± 0.5% | IC50 [1]: 227 ± 1.2 µM | Anti-proliferative activity at 100 μM by concentration (%) HCT116 (tumor cell inhibition rate) ([2]; 100 μM of the compound, 48 h): 0.6 ± 0.5% | IC50 ([2]; 48 h): 782 ± 51 µM

C=C[C@]1(C)CC[C@@H](C(=C)C/C=C/c2ccc(C(=O)OCC[C@@H](C)CCC=C(C)C)cc2)C[C@H]1C(=C)C [Compound 6]
inhibition at 100 µM [1, 3]: 14.4 ± 0.5% | inhibition at 100 µM ([2]; Homo sapiens, 48 h): 21.7 ± 0.8%

— US20250161233A1, “VINYLATION COUPLED DERIVATIVE OF BETA-ELEMENE, AND PREPARATION METHOD AND USE THEREOF IN PREPARATION OF ANTITUMOR DRUG” (HANGZHOU NORMAL UNIVERSITY, priority 2022, published 2025)
